The source made the active and inactive calls. No rule for the calls is given here. A value given as a limit tells only on which side of the number the result lay.

The subject of the experiment is MT1-MMP promoter luciferase reporter cells, luminescence. Kind of experiment: MT1-MMP gene expression reporter suppression – cell-based, luciferase reporter, luminescence (AID 618).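 Also: actives suppress MT1-MMP promoter-driven transcription so potencies describe inhibitors.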 On the technique in general: A reporter such as luciferase makes a cellular process visible.
In the case of `O=C(O)CCSc1nc2ccccc2s1`, the EC50 is 15.4 µM.

For the molecule `N#Cc1c(NC(=O)CSc2ncn[nH]2)sc2c1CCCC2`, the EC50 is 0.73 µM.

Take `O=C(NCc1cccs1)c1nc2c(nnn2Cc2ccccc2Cl)c(=O)[nH]1`: the EC50 was > 50 µM (inactive).

For the molecule `O=c1c2ccccc2nnn1CSc1nnc2sc3ccccc3n12`, the EC50 was 8.02 µM.

`COc1ccc(C(=O)Nc2ccc3c(c2)OCCO3)cc1`: the EC50 is 2.98 µM.

Turning to `CCc1ccc2oc(-c3cccc(N)c3)nc2c1`, the EC50 was 3.93 µM.

As for `Cc1ccc(-c2nc(-c3ccccn3)no2)cc1`, the EC50 is less than 0.098 µM.

Turning to `CC1CCc2nc(NC(=O)C3CCCO3)sc2C1` (stereo not drawn), the EC50 was 12.4 µM.

Regarding `Nc1cccc2nc3ccccc3cc12`, the EC50 is 21.9 µM.

Take `COc1ccc(C(=O)Nn2c(SCC(=O)N3CCC(C)CC3)nc3ccccc3c2=O)cc1`: the EC50 is 1.98 µM.

For `COc1ccc(-c2cc3nnc(-c4ccccc4)nc3s2)cc1`, the EC50 was 0.86 µM.

For the molecule `COc1ccc(-c2noc(CCCC(=O)O)n2)cc1`, the EC50 was 0.77 µM.

Consider `Cc1cc(NCCCn2ccnc2)n2ncc(-c3ccc(Cl)cc3)c2n1`, for which the EC50 was 8.72 µM.

Turning to `CCc1ccc(-c2cc(C(=O)Nn3cnnc3)c3ccccc3n2)cc1`, the EC50 is 2.12 µM.

In the case of `CC(C)c1ccc(-c2nnn(CCC(=O)O)n2)cc1`, the EC50 is 1.04 µM.

Take `Cc1ccc2nc(-c3cccc(N)c3)oc2c1`: the EC50 was 3.71 µM.

For the molecule `Nc1ccc(C(=O)Nc2nc3ccccc3s2)cc1`, the EC50 was 3.47 µM.

For the molecule `COc1nc(C)ccc1-c1noc(-c2ccco2)n1`, the EC50 was 10.9 µM.

For the molecule `Oc1c(CN2CCCCC2)cc(COCc2ccccc2)c2cccnc12`, the EC50 was 6.94 µM.

In the case of `O=C1C(N2CCOCC2)=C(n2nnc3ccccc32)C(=O)c2ccccc21`, the EC50 is 10.5 µM.

On to `Cc1nc2ccc(-c3nc4cc(N)ccc4o3)cc2[nH]1`, for which the EC50 was 3.71 µM.

Consider `O=C(NC1=NC2CCCCC2N1)c1ccccc1` (stereo not drawn), for which the EC50 was 12.9 µM.

For `Oc1ccc(Nc2nc(N3CCCC3)c3ccccc3n2)cc1`, the EC50 was 26.5 µM.

Regarding `COC(=O)c1nn(-c2ccc3c(c2)CCN3C(C)=O)cc1O`, the EC50 was 0.61 µM.

As to `COc1cccc(Cn2c(NCc3cccnc3)nc3c2c(=O)n(C)c(=O)n3C)c1`, the EC50 was 0.25 µM.

Turning to `Cc1ccc(C(=O)CSc2nnnn2C(C)C)c(C)c1`, the EC50 was 1.7 µM.

Take `COc1ccc(-c2cn3nc4c(nc3n2)CCCC4)cc1`: the 50% effective concentration (EC50) was 0.59 µM.

Regarding `C=CCn1c(C)cc(C(=O)CSc2nc3ccccc3[nH]2)c1C`, the EC50 was 2.64 µM.

For `O=S(=O)(c1ccc(Cl)cc1)c1snnc1-c1ccccc1`, the EC50 was 13.2 µM.

`O=C(Nc1ccc2c(c1)OCCO2)c1cncc(Br)c1`: the EC50 is 7.14 µM.

As to `CCOC(=O)c1sc2nc3c(cc2c1N)COC(C(C)C)C3` (stereo not drawn), the EC50 was 1.62 µM.

Consider `O=C(CN1C(=O)c2ccccc2S1(=O)=O)c1ccccc1`, for which the EC50 is > 50 µM (inactive).

On to `Cc1nc(Nc2nc3ccccc3o2)nc2c1CCC2`, for which the EC50 is 3.09 µM.

What is called EC50 is the concentration at which the effect is half-maximal.
